Patent publication US20050282734A1 (priority 1998, published 2005)

Tests used:
[1] = Magri et al. (1988); cited from earlier work
HSA = HSA (Homo sapiens, UniProt P02768); test: Effect of antioxidants on HSA dimerization at acidic pH (SDS-PAGE, reducing and non-reducing); settings: acidification of commercial HSA to pH 3.0-3.3; compared with ascorbic acid, L-cysteine, sodium thiosulfate
Method: This experiment evaluated a number of conditions to maintain HSA in the formulation, primarily in the monomeric form.
Evaluation of different antioxidants with undefatted and defatted acidic HSA preparations. • The following reducing reagents were tested: ascorbic acid, L-cysteine, dithioerythritol (DTE) and dithiothreitol (DTT), sodium metabisulfite, sodium thiosulfate, and thioacetic acid. • Different preparations of HSA (10%), including HSA-A, HSA-B, and HSA-D, were treated with antioxidant at different concentrations, ranging from 2 to 40 mM. • The HSA solutions were incubated at 2-8° C. for up to a month, and prevention of dimerization was analyzed by SDS-PAGE under both reducing and non-reducing conditions.
Analysis of the effect of antioxidant on prevention of HSA dimerization at low pH. • 5.
3.3 Add 80 μL of antioxidant solution to the 1.92 mL of HSA-A (20%) in 2×9′ (18) the 15-mL conical tubes as follows:
• Sample 9 will be the control sample for either HSA-B or HSA-D, untreated. • 3.4 Incubate the samples at 2-8° C. for at least 4 h. • 3.5 In the meantime, • 3.5.1 Prepare material for acidification and defatting of HSA. • 3.5.2 Prepare another 2×9 (18) set of 15-mL conical centrifuge tubes (sterile). […]

collagenase = settings: 10^−7 M paclitaxel, chondrocytes stimulated by tumor necrosis factor and interleukin-1; cited from earlier work
[2] = Solubility of paclitaxel in aqueous ethanol saline solution (visual turbidity); type: physicochemical
Method: Reagents Preparation • 1. […] A 20-ml physiological saline stock solution was also prepared in a small bottle (or flask) and designated the 1× saline stock solution.
4. The tubes were incubated at room temperature and observed at 0 h, 1 h and 3 h for precipitate formation. The results were recorded as + or − turbidity formation.

synoviocytes = settings: in vitro, cited from earlier work
[3] = molecular target: T1, human serum albumin (HSA) (Homo sapiens, UniProt P02768); test: Paclitaxel binding to HSA: ultrafiltration (10 kDa), free and total Ptx by ELISA and/or reverse-phase HPLC; design: purchased Desert Biologicals, Phoenix, Ariz; settings: pH 7.1
Method: • 1. […] Procedure • 1. […] Saline in water could also be added to the test tubes so that all the test tubes have substantially identical sodium chloride concentrations. • 3. […] The test tubes were covered with a piece of parafilm or in stoppered serum bottles and then incubated at room temperature, with occasional shaking (2 to 3 times). • 6. At 0 hr, 3 hr, and/or 18/24 hr of incubation, the samples were observed qualitatively for precipitate formation. • 7. At the end of the 18-24 hr incubation period, the reaction mixtures were analyzed for turbidity at 600 nm using a Shimadzu 160U UV/visible spectrophotometer (NBI Track #F1174). • 8. […] Analytical methods.
Procedure • 1. […] The test tubes were covered with a parafilm and then incubated at room temperature, with occasional shaking. Alternatively, the mixtures were prepared in stoppered serum vials. • 6.
This unbound fraction can be quantitated by reverse phase HPLC, and/or ELISA.

[4] = molecular target: T1, human serum albumin (HSA); test: Recovery of soluble Ptx and binding to HSA by liquid scintillation counting (radioactive Ptx; R, S, F fractions)
[5] = mice, co-administered P-glycoprotein blocker; cited from earlier work

T1 sequence (P02768 25-609): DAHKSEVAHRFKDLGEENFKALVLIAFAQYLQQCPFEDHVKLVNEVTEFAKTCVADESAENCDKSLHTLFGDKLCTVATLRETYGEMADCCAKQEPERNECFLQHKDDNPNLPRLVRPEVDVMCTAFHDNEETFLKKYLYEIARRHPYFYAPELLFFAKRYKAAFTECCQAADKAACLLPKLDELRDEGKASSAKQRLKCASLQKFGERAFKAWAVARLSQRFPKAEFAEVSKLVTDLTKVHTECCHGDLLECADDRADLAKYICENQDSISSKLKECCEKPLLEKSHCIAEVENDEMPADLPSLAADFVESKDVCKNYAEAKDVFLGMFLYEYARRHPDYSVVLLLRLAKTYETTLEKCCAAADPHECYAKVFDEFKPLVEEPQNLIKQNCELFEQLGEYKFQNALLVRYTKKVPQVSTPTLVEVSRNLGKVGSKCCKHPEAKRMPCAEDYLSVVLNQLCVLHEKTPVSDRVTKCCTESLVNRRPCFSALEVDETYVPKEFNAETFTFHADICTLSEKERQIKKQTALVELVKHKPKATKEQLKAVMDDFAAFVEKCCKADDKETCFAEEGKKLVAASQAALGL
HSA, sequence (P02768 25-609): as above

For CC(=O)O[C@H]1C(=O)[C@@]2(C)[C@H]([C@H](OC(=O)c3ccccc3)[C@]3(O)C[C@H](OC(=O)[C@H](O[Si](C)(C)C(C)(C)C)[C@@H](NC(=O)c4ccccc4)c4ccccc4)C(C)=C1C3(C)C)[C@]1(OC(C)=O)CO[C@@H]1C[C@@H]2O [2′-(t-butyldimethylsilyl)taxol], the “in vivo activity compared with paclitaxel” value [1] is listed as “essentially inactive”.

For CC(=O)O[C@H]1C(=O)[C@@]2(C)[C@H]([C@H](OC(=O)c3ccccc3)[C@]3(O)C[C@H](OC(=O)[C@H](OC(=O)CCC(=O)O)[C@@H](NC(=O)c4ccccc4)c4ccccc4)C(C)=C1C3(C)C)[C@]1(OC(C)=O)CO[C@@H]1C[C@@H]2O [2′-succinyltaxol], the “in vivo activity compared with paclitaxel” value [1] is listed as “decreased in vivo activity”.

For O[C@H](CS)[C@@H](O)CS [DTE, dithioerythritol], the “effectiveness in minimizing the HSA dimerization reaction” value (HSA) was “most effective”.

For CC(=O)O[C@H]1C(=O)[C@@]2(C)[C@H]([C@H](OC(=O)c3ccccc3)[C@]3(O)C[C@H](OC(=O)[C@H](O)[C@@H](NC(=O)c4ccccc4)c4ccccc4)C(C)=C1C3(C)C)[C@]1(OC(C)=O)CO[C@@H]1C[C@@H]2O [Ptx, paclitaxel], the “reduction of collagenase expression” value (collagenase) is given as “over 50%”, the “time until paclitaxel solutions turned cloudy” value ([2]; 500 μg/ml paclitaxel, 20% ethanol or less, room temperature) is given as at most 5 min and the “paclitaxel concentration at which solutions remained clear for at least 3 hours” value ([2]; aqueous ethanol saline solutions, room temperature) is given as at most 50 µg/mL. The “paclitaxel concentration at which clear solutions were obtained” value ([2]; aqueous ethanol solutions (5% to 25%), after a 1-h incubation at room temperature) was “less than 100 μg/ml”, the “solubility of paclitaxel at 500 μg/ml” value ([2]; saline solution containing up to 25% ethanol, after 1 hr) was “not soluble” and the “concentration cytotoxic to the synoviocytes” value (synoviocytes) was 10^−6 to 10^−5 M. The “concentration inhibiting proliferation of synoviocytes and inducing apoptosis” value (synoviocytes; concentrations as low as) was 10^−7 M, the recovery at 50 μg/mL ([3]; defatted human serum albumin (HSA) solution) was 73% and the recovery at 50 μg/mL ([3]; non-defatted human serum albumin (HSA) solution) was 89%. The “chemical stability of Ptx in alkaline pH formulations” value [4] was “poor”.

For C/C=C/C[C@@H](C)C(=O)[C@H]1C(=O)N[C@@H](C(C)C)C(=O)N(C)CC(=O)N(C)[C@@H](CC(C)C)C(=O)N[C@@H](C(C)C)C(=O)N(C)[C@@H](CC(C)C)C(=O)N[C@@H](C)C(=O)N[C@H](C)C(=O)N(C)[C@@H](CC(C)C)C(=O)N(C)[C@@H](CC(C)C)C(=O)N(C)[C@@H](C(C)C)C(=O)N1C [SDZ PSC 833], the “increase in oral bioavailability of paclitaxel” value [5] is listed as 10 fold.
